In patent US9556130B2, “4-oxo-3,4-dihydro-1,2,3-benzotriazine modulators of GPR139” (Takeda Pharmaceutical Company Limited, priority 2014, dated 2017):

Experiments:
[1] = biological target: T1, human GPR139 receptor (Homo sapiens (Human), UniProt Q6DWJ6); assay: Activation of Calcium Signaling of GPR139 In Vitro Assay; format: cell-based; settings: stably transfected CHO-TRex cells, Calcium 5 dye, FLIPR Tetra;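 also: receptor expression induced with doxycycline, calcium fluorescence read continuously for one minute after compound addition, EC50 taken from a four-parameter logistic fit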
T1 sequence (Q6DWJ6 whole entry): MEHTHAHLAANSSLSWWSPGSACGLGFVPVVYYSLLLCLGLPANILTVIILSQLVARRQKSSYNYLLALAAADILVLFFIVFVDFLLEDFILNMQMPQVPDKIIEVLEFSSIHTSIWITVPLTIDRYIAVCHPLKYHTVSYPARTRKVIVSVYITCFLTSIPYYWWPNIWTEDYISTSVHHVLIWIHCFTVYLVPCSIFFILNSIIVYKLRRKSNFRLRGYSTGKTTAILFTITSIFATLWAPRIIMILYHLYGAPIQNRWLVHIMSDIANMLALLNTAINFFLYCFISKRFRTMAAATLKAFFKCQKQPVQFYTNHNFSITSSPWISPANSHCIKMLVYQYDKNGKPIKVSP

[2] = biological target: T1, human GPR139 receptor; assay: GPR139 Competition Binding; settings: stably transfected CHO-TRex membranes, 1 nM 3H radioligand; read-out: GPR139 Inhibition (Ki (nM));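 also: receptor expression induced with doxycycline before membrane preparation, bound radioactivity counted by scintillation, Ki fitted with a four-parameter logistic model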

| SMILES | EC50 [1] [nM] | Ki [2] [nM] |
| --- | --- | --- |
| COc1ccc([C@H](C)NC(=O)Cn2nnc3c(Cl)cccc3c2=O)cc1 [Example 23, (S)-2-(8-chloro-4-oxobenzo[d][1,2,3]triazin-3(4H)-yl)-N-(1-(4-methoxyphenyl)ethyl)acetamide] | 13 | 842 |
| COc1ccc([C@H](C)NC(=O)Cn2nnc3c(F)cccc3c2=O)cc1 [Example 17, (S)-2-(8-fluoro-4-oxobenzo[d][1,2,3]triazin-3(4H)-yl)-N-(1-(4-methoxyphenyl)ethyl)acetamide] | 27 | 3600 |
| Cc1ccc([C@H](C)NC(=O)Cn2nnc3c(Cl)cccc3c2=O)cc1 [Example 22, (S)-2-(8-chloro-4-oxobenzo[d][1,2,3]triazin-3(4H)-yl)-N-(1-p-tolylethyl)acetamide] | 7 | 110 |
| COc1ccc([C@H](C)NC(=O)Cn2nnc3cccc(F)c3c2=O)cc1 [Example 33, (S)-2-(5-fluoro-4-oxobenzo[d][1,2,3]triazin-3(4H)-yl)-N-(1-(4-methoxyphenyl)ethyl)acetamide] | 41 | 4850 |
| Cc1ccc([C@H](C)NC(=O)Cn2nnc3ccc(F)cc3c2=O)c(C)c1 [Example 52, (S)—N-(1-(2,4-dimethylphenyl)ethyl)-2-(6-fluoro-4-oxobenzo[d][1,2,3]triazin-3(4H)-yl)acetamide] | 24 | 39 |
| COc1ccc([C@H](C)NC(=O)Cn2nnc3cccc(C)c3c2=O)cc1 [Example 40, (S)—N-(1-(4-methoxyphenyl)ethyl)-2-(5-methyl-4-oxobenzo[d][1,2,3]triazin-3(4H)-yl)acetamide] | 9 | 533 |
| Cc1ccc([C@H](C)NC(=O)Cn2nnc3c(C)cc(C)cc3c2=O)cc1 [Example 41, (S)-2-(6,8-dimethyl-4-oxobenzo[d][1,2,3]triazin-3(4H)-yl)-N-(1-p-tolylethyl)acetamide] | 7 | 10 |
| COc1ccc([C@H](C)NC(=O)Cn2nnc3c(C)cccc3c2=O)cc1 [Example 25, (S)—N-(1-(4-methoxyphenyl)ethyl)-2-(8-methyl-4-oxobenzo[d][1,2,3]triazin-3 (4H)-yl)acetamide] | 8 | 526 |
| COc1ccc([C@H](C)NC(=O)Cn2nnc3c(Cl)cc(Cl)cc3c2=O)cc1 [Example 27, (S)-2-(6,8-dichloro-4-oxobenzo[d][1,2,3]triazin-3(4H)-yl)-N-(1-(4-methoxyphenyl)ethyl)acetamide] | 7 | 190 |
| Cc1ccc([C@H](C)NC(=O)Cn2nnc3cc(C)ccc3c2=O)cc1 [Example 34, (S)-2-(7-methyl-4-oxobenzo[d][1,2,3]triazin-3(4H)-yl)-N-(1-p-tolylethyl)acetamide] | 7 | 347 |
| C[C@H](NC(=O)Cn1nnc2ccc(F)cc2c1=O)c1ccc(OC(F)(F)F)cc1 [Example 55, (S)-2-(6-fluoro-4-oxobenzo[d][1,2,3]triazin-3(4H)-yl)-N-(1-(4-(trifluoromethoxy)phenyl)ethyl)acetamide] | 38 | 42 |
| Cc1ccc([C@H](C)NC(=O)Cn2nnc3cccc(F)c3c2=O)cc1 [Example 32, (S)-2-(5-fluoro-4-oxobenzo[d][1,2,3]triazin-3(4H)-yl)-N-(1-p-tolylethyl)acetamide] | 16 | 459 |
| COc1ccc([C@H](C)NC(=O)Cn2nnc3cccc(OC)c3c2=O)cc1 [Example 38, (S)-2-(5-methoxy-4-oxobenzo[d][1,2,3]triazin-3 (4H)-yl)-N-(1-(4-methoxyphenyl)ethyl)acetamide] | 26 | 619 |
| COc1ccc([C@H](C)NC(=O)Cn2nnc3c(C)cc(C)cc3c2=O)cc1 [Example 42, (S)-2-(6,8-dimethyl-4-oxobenzo[d][1,2,3]triazin-3(4H)-yl)-N-(1-(4-methoxyphenyl)ethyl)acetamide] | 37 | 179 |

Results, then the compound that gave them:

| EC50 [1] [nM] | Ki [2] [nM] | SMILES |
| --- | --- | --- |
| 13 | 106 | C[C@H](NC(=O)Cn1nnc2ccc(F)cc2c1=O)c1ccc(C(F)(F)F)cc1 [Example 64, (S)-2-(6-fluoro-4-oxobenzo[d][1,2,3]triazin-3(4H)-yl)-N-(1-(4-(trifluoromethyl)phenyl)ethyl)acetamide] |
| 37 | 218 | COc1ccc2c(=O)n(CC(=O)N[C@@H](C)c3ccc(OC(F)(F)F)cc3)nnc2c1 [Example 56, (S)-2-(7-methoxy-4-oxobenzo[d][1,2,3]triazin-3(4H)-yl)-N-(1-(4-(trifluoromethoxy)phenyl)ethyl)acetamide] |
| 50 | 352 | COc1cccc2c(=O)n(CC(=O)N[C@@H](C)c3ccc(C(F)(F)F)cc3)nnc12 [Example 63, (S)-2-(8-methoxy-4-oxobenzo[d][1,2,3]triazin-3 (4H)-yl)-N-(1-(4-(trifluoromethyl)phenyl)ethyl)acetamide] |
| 25 | 240 | COc1cccc2c(=O)n(CC(=O)N[C@@H](C)c3ccc(OC(F)(F)F)cc3)nnc12 [Example 62, (S)-2-(8-methoxy-4-oxobenzo[d][1,2,3]triazin-3(4H)-yl)-N-(1-(4-(trifluoromethoxy)phenyl)ethyl)acetamide] |
| 31 | 214 | CC[C@H](NC(=O)Cn1nnc2ccccc2c1=O)c1ccc(C(F)(F)F)cc1 [Example 87, (S)-2-(4-oxobenzo[d][1,2,3]triazin-3 (4H)-yl)-N-(1-(4-(trifluoromethyl)phenyl)propyl)acetamide] |
| 18 | 115 | COc1ccc2nnn(CC(=O)N[C@@H](C)c3ccc(C(F)(F)F)cc3)c(=O)c2c1 [Example 60, (S)-2-(6-methoxy-4-oxobenzo[d][1,2,3]triazin-3(4H)-yl)-N-(1-(4-(trifluoromethyl)phenyl)ethyl)acetamide] |
| 10 | 282 | C[C@H](NC(=O)Cn1nnc2ccc(F)cc2c1=O)c1ccc(OC(F)F)cc1 [Example 68, (S)—N-(1-(4-(difluoromethoxy)phenyl)ethyl)-2-(6-fluoro-4-oxobenzo[d][1,2,3]triazin-3(4H)-yl)acetamide] |
| 15 | 26 | COc1cccc2nnn(CC(=O)N[C@@H](C)c3ccc(C(F)(F)F)cc3)c(=O)c12 [Example 61, (S)-2-(5-methoxy-4-oxobenzo[d][1,2,3]triazin-3 (4H)-yl)-N-(1-(4-(trifluoromethyl)phenyl)ethyl)acetamide] |
| 43 | 128 | COc1ccc2nnn(CC(=O)N[C@@H](C)c3ccc(OC(F)(F)F)cc3)c(=O)c2c1 [Example 57, (S)-2-(6-methoxy-4-oxobenzo[d][1,2,3]triazin-3(4H)-yl)-N-(1-(4-(trifluoromethoxy)phenyl)ethyl)acetamide] |
